Like-named read-outs stand apart in the source and are kept apart here.
Legend:
[1] = tested on: IAV A/WS/33 (H1N1)
[2] = in vitro; details: human, Compound only, percent viable cells ± standard deviation
[3] = tested on: HCMV ADCREGFP; details: HFFs; for EC50: read-out: EC50 (μM) ± s.d., GFP reporter HCMV, GFP expression 6 days after compound, mean of 2–3 dose–response determinations
[4] = in vitro; details: dog
[5] = tested on: HFFs; assay: Cell viability assay; assay type: cell-based, human; details: read-out: CC50 (μM) ± s.d., 6 days, MTS assay, mean of 2–3 dose–response determinations
[6] = tested on: HCMV ADCREGFP; details: cited from earlier work
[7] = tested on: IAV A/WS/33 (H1N1); details: cited from earlier work
[8] = tested on: MDCK cells; details: 24 h, T-1105 at 12.5 μM
[9] = tested on: Huh-7 cells; details: at 0.1 μM, Huh-7, 5 days
[10] = tested on: HCMV immediate-early protein 1 (IE1); details: infected and treated cells; cited from earlier work
[11] = tested on: HCMV immediate-early protein 2 (IE2); details: infected and treated cells; cited from earlier work
[12] = tested on: IAV A/WS/33 (H1N1); assay: microbe, parasite or virus in culture; details: Influenza A virus, H1N1, MDCK, 24 h
[13] = tested on: HCoV-OC43; details: at 1 μM, Huh7, 5 days
[14] = MDCK CPE assay, p97 inhibitors 0.1, 0.25, 0.5 μM, T-1105 at 12.5 μM

For Cc1cc2c(C(N)=O)cccc2n1-c1nc2c(c(NCc3ccccc3)n1)COCC2 [CB-5083], which “anti-IAV activity (in words)” value [1] is on record?
The value was “no detectable anti-IAV activity”.

What about the viability at 0.25 µM [2] of the same compound?
Its viability at 0.25 µM is 59 ± 3%.

What about the viability at 0.5 µM [2] of the same compound?
The viability at 0.5 µM was 38 ± 1%.

And the EC50 [3]?
The EC50 was 0.72 ± 1.1 µM.

And the viability at 0.1 µM [4]?
Its viability at 0.1 µM is 97 ± 3%.

What about the CC50 [5] of the same compound?
The CC50 was 0.53 ± 0.1 µM.

With Cc1cc(OCc2nnc(SC3CCCC3)n2-c2cccnc2)ccc1-c1ccc(S(C)(=O)=O)cc1 [NMS-873] as the compound, how does the “HCMV replication (in words)” value [6] read?
The value was “reduced virus replication”.

What about the “IAV virus production (in words)” value [7] of the same compound?
The value was “inhibits virus production”.

What about the “cell viability in IAV assay (in words)” value [8] of the same compound?
The value was “retention of cell viability”.

What about the “effect on cell viability (in words)” value [9] of the same compound?
Its value is “clear effect on cell viability”.

And the “anti-IAV activity (in words)” value [1, 14]?
The value was “Clear antiviral effects”.

And the IE1 expression [10]?
The IE1 expression was “not affected”.

What about the IE2 expression [11] of the same compound?
Its IE2 expression is “reduced”.

And the “TI, tissue culture therapeutic index (CC50/EC50)” value ([3]; HCMV)?
The value was 1.9.

And the EC50 [3]?
Its EC50 is 2.2 ± 2.5 µM.

And the viability at 0.1 µM [4]?
Its viability at 0.1 µM is 89 ± 3%.

And the viability at 0.25 µM [4]?
The viability at 0.25 µM was 80 ± 2%.

What about the viability at 0.5 µM [4] of the same compound?
The viability at 0.5 µM was 94 ± 2%.

What about the CC50 [5] of the same compound?
The CC50 was 4.1 ± 3.3 µM.

And the inhibition at 0.1 µM ([12]; read-out: Compound + Virus, percent viable cells ± standard deviation, 0.1 μM, MDCK, 24 h)?
Its inhibition at 0.1 µM is 21 ± 7%.

And the inhibition at 0.25 µM ([12]; read-out: Compound + Virus, percent viable cells ± standard deviation, 0.25 μM, MDCK, 24 h)?
Its inhibition at 0.25 µM is 62 ± 6%.

Which “protection against HCoV-OC43 CPE” value [13] does the source give for CCC(CC)COC(=O)[C@H](C)N[P@](=O)(OC[C@H]1O[C@@](C#N)(c2ccc3c(N)ncnn23)[C@H](O)[C@@H]1O)Oc1ccccc1 [RDV, remdesivir] here?
Its value is 100%.

What does the source list for NC(=O)c1nccnc1O [Compound T-1105, 3-hydroxypyrazine-2-carboxamide]?
cell viability in IAV assay (in words) [8]: retention of cell viability; anti-IAV activity (in words) [1, 14]: Clear antiviral effects
